Assay results as given in publication PMC10952535, “The differential binding and biological efficacy of auxin herbicides” (Pest Management Science, 2022).
Like-named read-outs stand apart in the source and are kept apart here.

Tests used:
[1] = target: T1, AtTIR1 (Arabidopsis thaliana, UniProt Q570C0); test: SPR relative binding (co-receptor complex formation with Aux/IAA7 degron), AtTIR1; conditions: 50 μM compound; for % of IAA binding: normalized to IAA = 100%
T1 construct: His10 (N, cleaved yes); eGFP (N, cleaved yes); FLAG (N, cleaved yes); made in house; host or cells: baculovirus; Trichoplusia ni Hi5 cells (virus generated in Sf9)
T1 sequence (Q570C0 whole entry, other chains not shown): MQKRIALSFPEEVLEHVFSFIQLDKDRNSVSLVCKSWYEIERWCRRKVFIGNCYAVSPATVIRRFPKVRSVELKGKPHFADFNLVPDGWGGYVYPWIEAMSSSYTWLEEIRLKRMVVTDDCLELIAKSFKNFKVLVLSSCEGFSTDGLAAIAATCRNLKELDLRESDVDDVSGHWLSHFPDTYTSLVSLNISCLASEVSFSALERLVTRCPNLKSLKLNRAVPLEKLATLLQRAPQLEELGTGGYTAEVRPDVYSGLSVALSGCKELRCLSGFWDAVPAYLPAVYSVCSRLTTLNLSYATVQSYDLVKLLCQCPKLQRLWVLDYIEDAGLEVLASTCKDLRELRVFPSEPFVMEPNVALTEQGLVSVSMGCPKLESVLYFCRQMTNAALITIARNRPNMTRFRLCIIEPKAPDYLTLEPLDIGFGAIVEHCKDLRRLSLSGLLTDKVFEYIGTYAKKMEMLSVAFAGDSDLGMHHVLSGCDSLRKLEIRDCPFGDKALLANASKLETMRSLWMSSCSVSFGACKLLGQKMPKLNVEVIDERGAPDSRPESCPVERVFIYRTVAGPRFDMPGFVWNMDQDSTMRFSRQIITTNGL
T1 sequence (Q39255 whole entry partner, other chains not shown): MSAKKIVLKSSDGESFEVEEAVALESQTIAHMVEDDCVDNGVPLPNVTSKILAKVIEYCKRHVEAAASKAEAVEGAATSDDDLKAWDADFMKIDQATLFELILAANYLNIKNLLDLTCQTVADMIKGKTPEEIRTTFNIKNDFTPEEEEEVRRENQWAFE
Procedure: (§1) Auxin binding assays using surface plasmon resonance (SPR) were performed on a Biacore 2000 as described previously.[3], [18], [23] Protein was stored on ice and protein concentrations were assayed by A280 nm measurement (nanodrop, Thermo Scientific). Briefly, AtAux/IAA7 degron peptide was immobilized on streptavidin‐coated SPR chips, and binding was measured in the presence of IAA or auxin analogue by recruitment of the TIR1/AFB protein from solution as the co‐receptor complex formed on the chip. Kinetic analyses were performed by single cycle kinetics on a Biacore T200 (Cytiva Life Sciences), titrating compounds against a fixed concentration of TIR1 before injection. The degron peptide density on the chips was controlled so that R max < 300 Response UNits (RU).

[2] = target: T2, AtAFB2 (Arabidopsis thaliana, UniProt Q9LW29); test: SPR relative binding (co-receptor complex formation with Aux/IAA7 degron), AtAFB2; conditions: 50 μM compound; for % of IAA binding: normalized to IAA = 100%
T2 construct: His10 (N, cleaved yes); eGFP (N, cleaved yes); FLAG (N, cleaved yes); made in house; host or cells: baculovirus; Trichoplusia ni Hi5 cells (virus generated in Sf9)
T2 sequence (Q9LW29 whole entry, other chains not shown): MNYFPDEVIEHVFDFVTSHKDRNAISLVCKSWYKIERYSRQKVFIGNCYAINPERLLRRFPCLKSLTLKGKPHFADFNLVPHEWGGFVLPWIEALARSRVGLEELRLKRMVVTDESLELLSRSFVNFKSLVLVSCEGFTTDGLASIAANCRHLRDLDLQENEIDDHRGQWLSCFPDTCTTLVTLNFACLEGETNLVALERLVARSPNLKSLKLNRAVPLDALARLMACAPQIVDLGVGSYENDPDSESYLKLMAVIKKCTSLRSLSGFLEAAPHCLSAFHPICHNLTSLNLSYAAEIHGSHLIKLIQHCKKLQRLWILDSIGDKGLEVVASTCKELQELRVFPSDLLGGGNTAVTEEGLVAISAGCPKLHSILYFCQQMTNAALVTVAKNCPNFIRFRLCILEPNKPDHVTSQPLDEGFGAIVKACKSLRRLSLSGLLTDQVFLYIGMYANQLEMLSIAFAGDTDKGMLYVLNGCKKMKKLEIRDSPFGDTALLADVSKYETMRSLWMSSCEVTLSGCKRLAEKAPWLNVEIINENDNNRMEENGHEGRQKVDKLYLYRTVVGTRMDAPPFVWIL
T2 sequence (Q39255 whole entry partner, other chains not shown): as the sequence (Q39255 whole entry partner, other chains not shown) above
Procedure: as §1

[3] = target: T3, AtAFB5 (Arabidopsis thaliana, UniProt Q9LTX2); test: SPR relative binding (co-receptor complex formation with Aux/IAA7 degron), AtAFB5; conditions: 50 μM compound; for % of IAA binding: normalized to IAA = 100%
T3 construct: His10 (N, cleaved yes); eGFP (N, cleaved yes); FLAG (N, cleaved yes); made in house; host or cells: baculovirus; Trichoplusia ni Hi5 cells (virus generated in Sf9)
T3 sequence (Q9LTX2 whole entry, other chains not shown): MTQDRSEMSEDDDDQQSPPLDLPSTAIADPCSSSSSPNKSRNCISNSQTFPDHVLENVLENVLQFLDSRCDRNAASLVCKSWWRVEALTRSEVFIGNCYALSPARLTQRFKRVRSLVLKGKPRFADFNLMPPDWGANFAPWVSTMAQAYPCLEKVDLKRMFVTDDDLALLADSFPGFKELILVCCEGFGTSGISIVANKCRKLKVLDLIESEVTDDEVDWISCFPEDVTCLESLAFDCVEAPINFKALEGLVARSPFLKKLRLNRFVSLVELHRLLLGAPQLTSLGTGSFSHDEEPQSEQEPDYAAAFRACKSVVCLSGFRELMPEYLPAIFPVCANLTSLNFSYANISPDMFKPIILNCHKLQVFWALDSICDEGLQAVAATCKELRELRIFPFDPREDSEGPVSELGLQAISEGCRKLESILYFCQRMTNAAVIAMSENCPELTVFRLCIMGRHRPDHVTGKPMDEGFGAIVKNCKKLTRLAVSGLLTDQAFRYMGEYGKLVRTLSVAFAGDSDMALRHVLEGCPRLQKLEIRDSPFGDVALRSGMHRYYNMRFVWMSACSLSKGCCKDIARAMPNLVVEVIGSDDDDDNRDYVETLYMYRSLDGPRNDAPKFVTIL
T3 sequence (Q39255 whole entry partner, other chains not shown): as the sequence (Q39255 whole entry partner, other chains not shown) above
Procedure: as §1

[4] = target: T3, AtAFB5; test: biochemical; type: binding
Procedure: as §1

[5] = target: T1, AtTIR1; test: biochemical; type: binding
Procedure: as §1

[6] = target: T2, AtAFB2; test: SPR single cycle kinetics, AtAFB2; type: binding
Procedure: as §1

[7] = system: Arabidopsis thaliana wild type (WT) Col‐0; test: Foliar efficacy bioassay, wild type; type: in vivo; conditions: foliar application; for GR50 (DW % of NT): dry weight at 14 DAT
Procedure: (§2) Bioassays were carried out with the model species Arabidopsis thaliana. The wild type (WT) Col‐0 line was compared to an afb5‐1 mutant line in a Col‐0 background containing a missense mutation of R609K.[11] A. thaliana seeds were sown on Metro‐mix 360 potting mix (Sungro Horticulture) supplemented with vermiculite and stratified for 3 days at 4 °C in the dark. Flats were moved to a growth chamber (as above) and a plastic lid was placed on the flat. On germination, the lid was removed. After 2 weeks in the growth chamber, seedlings were transplanted into 3‐in. pots with Metro‐mix 360 potting mix and moved to a greenhouse. The greenhouse was maintained at a day/night temperature of 23/22 °C and supplemented with light to complete a 16 h photoperiod. Plants were allowed to recover from transplanting for 1 week prior to applications. A. thaliana seedlings were sprayed with test compounds at five rates with four replications. Tests included nontreated and solvent check controls. Individual compound doses varied and were based on plate test data or anecdotal potency. Compounds were formulated as technical material and were initially dissolved in 1 part 97:3 (v/v) acetone: dimethylsufoxide (DMSO) followed by 5 parts 1.5% (v/v) Agridex crop oil concentrate in distilled water to give a final concentration of 1.25% (v/v) Agridex. Formulated compounds were sprayed at a volume of 187 L ha^−1 at a spray height of 43 cm above the plants with an overhead Mandel track sprayer set with 8002 E Tee jet nozzle. Plants were treated at rosette stage just prior to or at initiation of bolting. After spray application, plants were allowed to dry then moved back to the greenhouse. Plants were grown in the greenhouse (same conditions as above) for 2 weeks until harvest. Visual injury/growth reduction observations were made at 7 and 14 days after treatment (DAT) and scored where 0% = no growth reduction and 100% = complete growth reduction or plant death. At 14 DAT the plants were harvested and dried to collect dry weight (DW) biomass.
(§3) The data collected in the foliar application of compounds generated a measure of sensitivity or dose response. The data was analyzed by regression in JMP 10.0 and fit to a nonlinear exponential three parameter fit model:
(§4) where a is the asymptote, b is the scale and c is the rate of growth. The model was used to determine the herbicidal dose that caused 50% reduction in growth (GR50). GR50 values were compared between mutant and WT to give an indication of fold resistance over WT (Table 3). A log‐logistic model[24] was also used to fit the data and gave similar GR50 values with greater standard errors without changing the pattern of responsiveness.

[8] = system: Arabidopsis thaliana afb5‐1 mutant line; type: in vivo; conditions: for GR50 (DW % of NT): dry weight at 14 DAT; for Resistance ratio (afb5‐1 vs WT), DW: ratio of dry weight GR50 values; for Resistance ratio (afb5‐1 vs WT), DW / Resistance ratio (afb5‐1 vs WT), visual injury: foliar application; for Resistance ratio (afb5‐1 vs WT), visual injury: ratio of visual injury GR50 values
Procedure: as §2, §3, §4

[9] = system: Arabidopsis thaliana afb5‐1 seedlings; test: Root growth inhibition bioassay, afb5‐1 mutant; type: in vivo; conditions: afb5‐1 vs WT dose-response, 8 days
Procedure: (§5) A. thaliana seed was surface sterilized in 10 mL of 50% bleach and two drops of Tween‐20 for 12 min and rinsed six times with sterile water. Sterile growth media consisted of half‐strength Murashige and Skoog salts supplemented with 0.4% agar and 0.8% sucrose. In a laminar flow hood, 8 mL of liquid media was transferred to sterile test‐tubes placed in a heat block to maintain media in a liquid state. Compounds were previously diluted in 50/50 DMSO/water to a known molar concentration. A 50‐μL aliquot of diluted compound was added to each tube to give a specified final concentration, normally 10, 1, 0.1, 0.01 or 0.001 μM. A single tube was treated with solvent only as a control. Test compounds were mixed into the media by pipetting up and down three times, then 6 mL of media with test compound was added to one well in a six‐well plate, working from low‐to‐high concentration, and allowed to solidify in the laminar flow hood. Approximately 15 sterilized seeds were placed on the solidified surface and the remaining 2 mL of liquid media was added to cover and disperse seeds. Plates were sealed with paraffin and moved to a Conviron growth chamber set to 60% humidity, 25 °C and light intensity 100 μE m^2 s^−1 with a 16 h photoperiod. After 8 days primary root measurements of five random plants were taken by removing plants from media and measuring with a ruler. Treatments were compared against the solvent control to determine percentage root growth inhibition. Each experiment was run twice and averages were combined for analysis.

[10] = system: Arabidopsis thaliana Col‐0 seedlings; test: Root growth inhibition bioassay, wild type; type: in vivo; conditions: 8 days, up to 10 μM
Procedure: as §5, with “Treatments were compared against the solvent control to determine percentage root growth inhibition. Each experiment was run twice and averages were combined for analysis.” left out

[11] = averaged equilibrium dissociation constant, SPR single cycle kinetics, read-out: Ave KD

SMILES | % of IAA binding [1] | % of IAA binding [2] | % of IAA binding [3] | Kd [4, 11] | Kd [5, 11] | Kd [6, 11] | GR50 (DW % of NT) [7] | GR50 (visual injury) [7] | GR50 (DW % of NT) ([8]; afb5‐1, foliar application) | GR50 (visual injury) ([8]; afb5‐1, foliar application) | Resistance ratio (afb5‐1 vs WT), DW [8] | Resistance ratio (afb5‐1 vs WT), visual injury [8] | Resistance of afb5‐1 in root growth inhibition (in words) [9] | Kd [4] | Kd [5] | Primary root growth inhibition (in words) [10] | other results
COc1c(Cl)ccc(-c2cc(N)c(Cl)c(C(=O)O)n2)c1F [Halauxifen] | 10% | < 5% | 170% | 2.4 µM | 128 µM | 333 µM | 0.08 g ai ha^−1 | 0.4 g ai ha^−1 | 0.6 g ai ha^−1 | 2.4 g ai ha^−1 | 7.5 | 6 | considerable resistance |  |  |  | 
Nc1c(Cl)c(Cl)nc(C(=O)O)c1Cl [Picloram] |  |  |  |  |  |  | 13.7 g ai ha^−1 | 202 g ai ha^−1 | 996 g ai ha^−1 |  | 72.7 |  | considerable resistance | 107 µM | 319 µM | low level of phytotoxicity | Relative binding (in words) ([1]; compared to IAA): relatively low binding; Relative binding (in words) ([2]; compared to IAA): relatively low binding; Relative binding (in words) ([3]; compared to IAA): relatively low binding
COc1c(Cl)ccc(-c2nc(C(=O)O)c(Cl)c(N)c2F)c1F [Florpyrauxifen] |  |  |  | 2.7 µM | 62 µM | 105 µM | 0.1 g ai ha^−1 | 0.7 g ai ha^−1 | 1 g ai ha^−1 | 5.2 g ai ha^−1 | 10 | 7.4 | considerable resistance |  |  |  | 
O=C(O)COc1ccc(Cl)cc1Cl [2,4‐D, 2,4‐dichlorophenoxyacetic acid] | 29% | 22% | 40% |  |  |  | 3.9 g ai ha^−1 | 19.2 g ai ha^−1 | 9.9 g ai ha^−1 | 40.5 g ai ha^−1 | 2.5 | 2.1 | No resistance | 152 µM | 229 µM |  | Kd [6]: 392 µM
O=C(O)c1c(Cl)ccc2cc(Cl)cnc12 [Quinclorac] | < 5% | < 5% | < 5% |  |  |  | 1015 g ai ha^−1 |  | 1002 g ai ha^−1 |  | 1 |  | No resistance |  |  | very low root growth inhibition | Foliar phytotoxicity (in words) [7]: did not provide much phytotoxicity; Foliar phytotoxicity / resistance (in words) ([8]; afb5‐1, foliar application): did not provide much phytotoxicity
